Source: US20230174660A1, “USE OF A MULTIMERIC ANTI-DR5 BINDING MOLECULE IN COMBINATION WITH A CANCER THERAPY FOR TREATING CANCER” (IGM Biosciences, Inc., priority 2020, published 2023)

Columns and labels:
[1] = tested on: DR5 agonist-resistant MDA-MB-231 cells; test: Cell Titer Glo viability, Mab A + SMAC mimetic on DR5 agonist-resistant tumor cells (Example 8); assay type: cell-based
[2] = tested on: A2058; test: Cell Titer Glo viability, Mab A + birinapant (Example 10); assay type: cell-based; conditions: A2058 (Melanoma)
Procedure: (§1) Cell viability curves for combinations of anti-DR5 IgM Mab A with birinapant on A2058, BT-20, DV-90, ES-2, HCC15, HCT 116, HT 1080, KYSE 410, MEWO, OVCAR-5, SK-LU-1, SK-MEL-5, SNU-1, SW780, SW1353, and T24 are shown in FIGS. 19A, 19C, 19E, 19G, 19I, 19K, 19M, 19O, 19Q, 19S, 19U, 19W, 19Y, 19AA, 19AC, and 19AE, respectively. Synergy was determined as described in earlier examples.

[3] = tested on: BT-20; test: as above; assay type: cell-based; conditions: BT-20 (TNBC)
Procedure: as §1

[4] = tested on: ES-2; test: as above; assay type: cell-based; conditions: ES-2 (Ovarian)
Procedure: as §1

[5] = tested on: HCC15; test: as above; assay type: cell-based; conditions: HCC15 (Lung)
Procedure: as §1

[6] = tested on: HCT 116; test: as above; assay type: cell-based; conditions: HCT 116 (Colorectal)
Procedure: as §1

[7] = tested on: HT 1080; test: as above; assay type: cell-based; conditions: HT 1080 (Fibrosarcoma)
Procedure: as §1

[8] = tested on: KYSE 410; test: as above; assay type: cell-based; conditions: KYSE 410 (Esophageal)
Procedure: as §1

[9] = tested on: MEWO; test: as above; assay type: cell-based; conditions: MEWO (Melanoma)
Procedure: as §1

[10] = tested on: OVCAR-5; test: as above; assay type: cell-based; conditions: OVCAR-5 (Ovarian)
Procedure: as §1

[11] = tested on: SNU-1; test: as above; assay type: cell-based; conditions: SNU-1 (Gastric)
Procedure: as §1

[12] = tested on: SW1353; test: as above; assay type: cell-based; conditions: SW1353 (Chondrosarcoma)
Procedure: as §1

[13] = tested on: SW780; test: as above; assay type: cell-based; conditions: SW780 (Bladder)
Procedure: as §1

[14] = tested on: T24; test: as above; assay type: cell-based; conditions: T24 (Bladder)
Procedure: as §1

[15] = tested on: 8305C; test: Cell Titer Glo viability, Mab A + birinapant, head and neck tumor cell lines (Example 12); assay type: cell-based; conditions: 8305C head and neck cancer cell line
Procedure: (§2) Exemplary cell viability curves for combinations of anti-DR5 IgM Mab A with birinapant on Detroit 562 and KYSE270 are shown in FIGS. 22A and 22C, respectively. Synergy was determined as described in earlier examples. […] The Average Bliss synergy scores for combinations of Mab A and birinapant on the various head and neck tumor cell lines are shown in Table 14.

[16] = tested on: 8505C; test: as above; assay type: cell-based; conditions: 8505C head and neck cancer cell line
Procedure: as §2

[17] = tested on: A253; test: as above; assay type: cell-based; conditions: A253 head and neck cancer cell line
Procedure: as §2

[18] = tested on: Detroit 562; test: as above; assay type: cell-based; conditions: Detroit 562 head and neck cancer cell line
Procedure: as §2

[19] = tested on: FaDu; test: as above; assay type: cell-based; conditions: FaDu head and neck cancer cell line
Procedure: as §2

[20] = tested on: KYSE-70; test: as above; assay type: cell-based; conditions: KYSE-70 head and neck cancer cell line
Procedure: as §2

[21] = tested on: KYSE150; test: as above; assay type: cell-based; conditions: KYSE150 head and neck cancer cell line
Procedure: as §2

[22] = tested on: KYSE270; test: as above; assay type: cell-based; conditions: KYSE270 head and neck cancer cell line
Procedure: as §2

[23] = tested on: KYSE410; test: as above; assay type: cell-based; conditions: KYSE410 head and neck cancer cell line
Procedure: as §2

[24] = tested on: OE19; test: as above; assay type: cell-based; conditions: OE19 head and neck cancer cell line
Procedure: as §2

[25] = tested on: TE-1; test: as above; assay type: cell-based; conditions: TE-1 head and neck cancer cell line
Procedure: as §2

[26] = tested on: EBC-1; test: Cell Titer Glo viability, Mab A + SMAC mimetics (Example 13); assay type: cell-based; conditions: SMAC mimetic in combination with Mab A
Procedure: (§3) Synergy was determined as described in earlier examples. The average Bliss synergy scores for combinations of Mab A and SMAC mimetic on the various tumor cell lines are shown in Table 15.

[27] = tested on: HCT 116; test: as above; assay type: cell-based; conditions: SMAC mimetic in combination with Mab A
Procedure: as §3

[28] = tested on: HT 1080; test: as above; assay type: cell-based; conditions: SMAC mimetic in combination with Mab A
Procedure: as §3

[29] = tested on: OVCAR-4; test: as above; assay type: cell-based; conditions: SMAC mimetic in combination with Mab A
Procedure: as §3

[30] = tested on: SK-MEL-5; test: as above; assay type: cell-based; conditions: SMAC mimetic in combination with Mab A
Procedure: as §3

[31] = tested on: SW1353; test: as above; assay type: cell-based; conditions: SMAC mimetic in combination with Mab A
Procedure: as §3

[32] = tested on: EBC-1 tumor cells; test: EBC-1 non-small cell lung cancer (NSCLC) model (Example 11); assay type: in vivo, mice; conditions: birinapant 30 mg/kg i.p. every 3 days, alone or with Mab A 5 mg/kg i.v.; n=10 animals/group
Excerpt: 3×10^6 EBC-1 tumor cells were implanted subcutaneously in the flanks of female BALB/c nude mice.

[33] = tested on: SA3840 tumor fragments; test: SA3840 osteosarcoma PDX model (Example 11); assay type: in vivo, mice; conditions: birinapant 30 mg/kg i.p., alone or with Mab A 5 mg/kg i.v.; n=5 animals/group
[34] = tested on: MDA-MB-231 tumor cells; test: Cell Titer Glo viability, Mab A + SMAC mimetic (Example 7); conditions: MDA-MB-231 cells; 72 hours

CC[C@H](NC(=O)[C@H](C)NC)C(=O)N1C[C@@H](O)C[C@H]1Cc1c(-c2[nH]c3cc(F)ccc3c2C[C@@H]2C[C@H](O)CN2C(=O)[C@H](CC)NC(=O)[C@H](C)NC)[nH]c2cc(F)ccc12 [birinapant, Birinapant]
single agent cytotoxicity (cell viability curves) [1]: little to no cytotoxicity | Avg Bliss score [2]: 49 | Avg Bliss score [3]: 4 | Avg Bliss score [4]: 19 | Avg Bliss score [5]: 41 | Avg Bliss score [6]: 36 | Avg Bliss score [7]: 45 | Avg Bliss score [8]: 42 | Avg Bliss score [9]: 26 | Avg Bliss score [10]: 17 | Avg Bliss score [11]: 39 | Avg Bliss score [12]: 18 | Avg Bliss score [13]: 35 | Avg Bliss score [14]: 38 | Average Bliss score [15]: 27 | Average Bliss score [16]: 10 | Average Bliss score [17]: 26 | Average Bliss score [18]: 36 | Average Bliss score [19]: 16 | Average Bliss score [20]: 25 | Average Bliss score [21]: 0.2 | Average Bliss score [22]: 15 | Average Bliss score [23]: 35 | Average Bliss score [24]: 17 | Average Bliss score [25]: 29 | Average Bliss score [26]: 39 | Average Bliss score [27]: 31 | Average Bliss score [28]: 30 | Average Bliss score [29]: 14 | Average Bliss score [30]: 14 | Average Bliss score [31]: −0.6 | mice that missed doses due to body weight loss [32]: 3 mice | animals that missed doses due to body weight loss [33]: 1 animal | single agent cytotoxicity (cell viability curves) [34]: little to no cytotoxicity
